Assay results published in US20060206946A1, “Method of disrupting heme transport in nematodes and of modelling and evaluating eukaryotic heme transport” (priority 2005, published 2006).

What was measured:
Format in all cases: in vivo, Caenorhabditis elegans
C. elegans = settings: pulse 40 μM ZnMP 3 h
Procedure: (C) Fluorescent metabolic labeling of worms with either 40 μM hemin (images 1, 4) or 40 μM ZnMP/4 μM hemin (images 2, 3, 5, 6) for 3 h followed by confocal microscopy with a 546 laser (images 1-3) and DIC optics (images 4-6). Arrowheads indicate ZnMP fluorescence accumulation within intestinal cells and developing embryos. For clarity, the boxed image in 2 is magnified in images 3 and 6. (Bar=100 μm).
(D) Worms were incubated with 40 μM ZnMP/4 μM hemin for 16 h followed by a chase with 40 μM hemin. Worms were analyzed by epifluorescence microscopy (TRITC channel) and DIC optics. Experiments were performed either in the absence (images 1-4) or presence (images 5-8) of NaN3 during the chase periods to test for the non-specific loss of ZnMP fluorescence. Photomicrograph 4 is shown at a lower power to depict the complete loss of ZnMP fluorescence. (Bar=100 μm). For (C) and (D), four separate experiments were performed with a minimum of 50 worms per data point per experiment. The data are representative for >90% of worms analyzed.
Because of the nature of the growth curve, we reasoned that heme homeostatis in C. elegans may be regulated in accordance with organismic needs and metabolic demands. […]
Pulse-Chase Analysis. […] At timed intervals, aliquots of worms were removed into the appropriate medium containing 10 mM NaN3 mounted on a slide and immediately analyzed with a 543 He/Ne laser on a Zeiss 410 confocal microscope, or with a Peltier-cooled Retiga 1300 12-bit CCD camera fitted on to a Leica DMIRE2 autofluorescence/DIC microscope. Images were further analyzed with SIMPLEPCI v5.2 Software (Compix, Inc.). […] No loss of fluorescence was observed when labeling experiments were performed in parallel in the presence of 1 mM NaN3 during the chase period and when worms were incubated in medium without hemin. To account for background autouluorescence in C. elegans, the sensor gain of the CCD camera or the laser was set to subtract any fluorescence obtained from control worms incubated in the presence of 40 μM hemin.

[1] = tested on: C. elegans genes transcriptionally regulated by heme; assay: Affymetrix C. elegans Genome Array: genes transcriptionally regulated by heme (4 and 500 μM vs 20 μM hemin); settings: low heme (4 μM)
Procedure: Worms were grown at 4 μM (low) 20 μM (optimal) and 500 μM (high) hemin in axenic CeHR medium. We chose 4 and 500 μM hemin because these heme concentrations were at either end of the worm growth spectrum, and worms at these heme concentrations show a ˜24 h growth delay compared to worms grown at 20 μM hemin. […] In order to eliminate maternal effect genes, wild-type N2 worms were grown for two synchronized generations in their respective hemin concentrations to obtain F2 worms at the […] as determined by morphological analysis of the vulva. F2 worms from all three heme conditions were harvested at the same mid-L4 stage for final RNA extraction. The RNA was extracted with Trizol and treated with RNase-free DNase to remove any contaminating DNA followed by a purification on a Qiagen RNeasy column. Each experiment was performed four independent times on four separate days to ensure proper sampling and to account for experimental variations. […]
From these genes, 58 genes were excluded because they were specific to germline, sperm or oocyte development, as determined by cross-checking with publicly available microarray databases. […]
The initial statistical analysis of the Affymetrix genome array was performed at the NIDDK microarray facility using Affymetrix MAS 5.0 Suite software. […] The standard error for ΔΔCt will be calculated by the method of Livak and Schmittgen. […]

R02E12.6 = assay: qRT-PCR validation of heme-regulated genes (2^-ΔΔCt method); settings: low heme
Procedure: The initial statistical analysis of the Affymetrix genome array was performed at the NIDDK microarray facility using Affymetrix MAS 5.0 Suite software. […] To further narrow-down candidate genes, we eliminated 58 genes that are involved in worm developmental processes by comparing the data from the gene chip to the microarray data of S. Kim. See Kim, S. K. et al., Science 293, 2087-2092 (2001). […] These 280 genes were then sorted based on different categories of changes in gene expression (up, down or no change) seen in 4 μM versus 500 μM samples using 20 μM dataset as the baseline (Table XX). Protein sequence motif analysis (BLOCKS, PRINTS, Pfam), transmembrane (TM-HMM) and secondary structure predictions (ExPASy) proteomics tools are performed to identify domains and motifs within the predicted ORFs […] and the housekeeping gene Ct value: ΔCt=Ctsample−Ctreference. Relative mRNA abundance represents the difference between ΔCt values for a pair of conditions, i.e., 4 μM versus […]. Relative mRNA expression is exponential and defined by the formula [Mrna]=2^−ΔΔCt. […] The standard error for ΔΔCt will be calculated by the method of Livak and Schmittgen. […]

## hemin chloride
C. elegans
  hemin concentration of growth medium giving dramatic decline in ZnMP fluorescence: ≥ 100 µM
  hemin concentration of growth medium giving robust uptake of fluorescent ZnMP: ≤ 20 µM
[1]
  upregulation of R02E12.6 in microarrays: 16 fold
R02E12.6
  upregulation of R02E12.6 by qRT-PCR: > 40 fold
